Laboratory results as given in US20140134135A1, “METHODS AND COMPOSITIONS FOR PRESERVING LEAN BODY MASS DURING WEIGHT LOSS” (NESTEC SA, priority 2011, published 2014).

Assay: Four-month weight loss study with oral OEA in the diet; body weight and body composition by DEXA
Assay type: in vivo, dogs (adult Labradors)
From the text: The physiological effects of regular oral OEA administration were investigated. OEA was provided as a supplement to dogs for four months to study the effect on body weight loss and body composition. Seventeen adult Labradors participated in the study. Males with greater than 22% body fat and females with greater than 26% body fat were selected. Based on maintenance energy requirements (MER), body weight and percentage of body fat, the dogs were randomly assigned into two groups. The control group (N=9) received a standard dry adult dog food (the control diet without any OEA). The test group (N=8) received the selected dose of OEA incorporated into the standard diet. The dogs were fed 25% less than their MER for 3 months and an additional 15% less for the next month. Body weight was recorded weekly and dual X-ray absorptiometry (DEXA) scans were performed at baseline and every month.

[1] = dogs fed OEA containing diet, calorie restricted, four months, chronic oral
[2] = dogs fed a weight loss diet with OEA

## CCCCCCCC/C=C\CCCCCCCC(=O)NCCO [OEA, oleoylethanolamide]
[1]
  Fat Loss (g/kg body weight loss): 561 g/kg body weight loss
  Lean Loss (g/kg body weight loss): 469 g/kg body weight loss
[2]
  body fat loss versus weight loss diet without OEA (in words): more loss in body fat
  lean body mass loss versus weight loss diet without OEA (in words): reduced loss of lean body mass
End of the four month study, control diet versus OEA diet
  less fat lost by dogs fed the control diet than by dogs fed the OEA containing diet, for every kilogram of body weight loss: 52%
End of the four month study, versus control diet
  less lean body mass lost than dogs fed the control diet, for every kilogram of body weight loss: 20%
End of the four month study, control diet −0.3%
  change in body fat: −1.8%
End of the four month study, control diet −1432.2 g
  change in lean body mass: -1166.6 g
